Measurements taken from ChEMBL document CHEMBL1201862, “PubChem BioAssay data set” (2004).
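Each compound was tested at five concentrations against cells in 96-well plates for 48 hours. GI50 marks 50% less growth.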 Activity calls are given as the source filed them. Cut-off read from the data, not from the text of the source: active = GI50 up to about 1.1 µM and inactive = higher.

Tests used:
Test in all cases: inhibition of tumour cell growth, NCI panel, 48 h
786-0 = test system: 786-0
A498 = test system: A498
HOP-62 = test system: HOP-62
HOP-92 = test system: HOP-92
Hs-578T = test system: Hs-578T
IGROV-1 = test system: IGROV-1
K562 = test system: K562
KM12 = test system: KM12
MDA-MB-435 = test system: MDA-MB-435
NCI-H226 = test system: NCI-H226
NCI-H460 = test system: NCI-H460
OVCAR-3 = test system: OVCAR-3
PC-3 = test system: PC-3
RPMI-8226 = test system: RPMI-8226
SF-539 = test system: SF-539
SK-MEL-2 = test system: SK-MEL-2
SK-OV-3 = test system: SK-OV-3
SNB-75 = test system: SNB-75
TK-10 = test system: TK-10
UO-31 = test system: UO-31

Row | Structure (SMILES) | GI50 (786-0) | GI50 (A498) | GI50 (HOP-62) | GI50 (HOP-92) | GI50 (Hs-578T) | GI50 (IGROV-1) | GI50 (K562) | GI50 (KM12) | GI50 (MDA-MB-435) | GI50 (NCI-H226) | GI50 (NCI-H460) | GI50 (OVCAR-3) | GI50 (PC-3) | GI50 (RPMI-8226) | GI50 (SF-539) | GI50 (SK-MEL-2) | GI50 (SK-OV-3) | GI50 (SNB-75) | GI50 (TK-10) | GI50 (UO-31)
1 | CN1CCN(CCCCNc2cc3c4ccccc4c(NCCCCN4CCN(C)CC4)cc3c3ccccc23)CC1 | 1.63 µM (inactive) | 12 µM (inactive) | 3.59 µM (inactive) | 6.61 µM (inactive) | 2.38 µM (inactive) | 1.93 µM (inactive) | 1.57 µM (inactive) | 1.55 µM (inactive) | 0.184 µM (active) | 13.4 µM (inactive) | 1.53 µM (inactive) | 2.98 µM (inactive) | 3.31 µM (inactive) | 1.38 µM (inactive) | 1.94 µM (inactive) | 5.05 µM (inactive) | 14.6 µM (inactive) | 3.38 µM (inactive) | 6.95 µM (inactive) | 2.69 µM (inactive)
2 | COc1cc(/C=C2\C[C@H]3[C@@H]4CC=C5C=C(N6CCCC6)CC[C@]5(C)[C@H]4CC[C@]3(C)C2=O)cc(OC)c1OC | 2.84 µM (inactive) | 8.79 µM (inactive) | 2.48 µM (inactive) | 2.21 µM (inactive) | 2.4 µM (inactive) | 1.79 µM (inactive) | 3.42 µM (inactive) | 1.91 µM (inactive) | 1.63 µM (inactive) | 13.6 µM (inactive) | – | 1.88 µM (inactive) | 3.12 µM (inactive) | 2.53 µM (inactive) | 3.5 µM (inactive) | 3.18 µM (inactive) | 6.89 µM (inactive) | 4.51 µM (inactive) | 6.49 µM (inactive) | 4.83 µM (inactive)
3 | CCOc1ccc2nc(NC(=O)/C(CC(=O)CC(C3=C(O)c4ccccc4CC3=O)c3ccccc3)=N\O)sc2c1 (stereo unspecified) | > 100 µM (inactive) | > 100 µM (inactive) | – | > 100 µM (inactive) | > 100 µM (inactive) | > 100 µM (inactive) | > 100 µM (inactive) | > 100 µM (inactive) | > 100 µM (inactive) | > 100 µM (inactive) | > 100 µM (inactive) | > 100 µM (inactive) | > 100 µM (inactive) | > 100 µM (inactive) | > 100 µM (inactive) | > 100 µM (inactive) | > 100 µM (inactive) | 52.1 µM (inactive) | – | > 100 µM (inactive)
4 | C=C[C@@H]1C(CO)=CCC2[C@H]1CCC1C(C)(C)C(=O)CC[C@]21C (stereo partly specified) | > 100 µM (inactive) | > 100 µM (inactive) | > 100 µM (inactive) | > 100 µM (inactive) | > 100 µM (inactive) | > 100 µM (inactive) | > 100 µM (inactive) | > 100 µM (inactive) | > 100 µM (inactive) | > 100 µM (inactive) | > 100 µM (inactive) | > 100 µM (inactive) | > 100 µM (inactive) | > 100 µM (inactive) | > 100 µM (inactive) | > 100 µM (inactive) | > 100 µM (inactive) | – | > 100 µM (inactive) | > 100 µM (inactive)
5 | O=C1Nc2ccccc2/C1=N/Nc1ccc([N+](=O)[O-])cc1[N+](=O)[O-] | 9.25 µM (inactive) | 22.4 µM (inactive) | 9.04 µM (inactive) | 3.58 µM (inactive) | 6.37 µM (inactive) | 7.94 µM (inactive) | 32.4 µM (inactive) | 13.6 µM (inactive) | 98.4 µM (inactive) | 12 µM (inactive) | 7.89 µM (inactive) | 3.13 µM (inactive) | 12.9 µM (inactive) | 26.1 µM (inactive) | 2.48 µM (inactive) | – | 12.1 µM (inactive) | 18.7 µM (inactive) | 9.08 µM (inactive) | 13.2 µM (inactive)
6 | CC(NC1=NCCO1)c1ccsc1 (stereo unspecified) | 18.8 µM (inactive) | > 100 µM (inactive) | – | 23.6 µM (inactive) | 11.5 µM (inactive) | 34.8 µM (inactive) | 21.4 µM (inactive) | 18.8 µM (inactive) | 20.9 µM (inactive) | 58.1 µM (inactive) | 10.9 µM (inactive) | 28.8 µM (inactive) | 21.1 µM (inactive) | 7.52 µM (inactive) | 16.2 µM (inactive) | 21.9 µM (inactive) | 71.8 µM (inactive) | 13.2 µM (inactive) | 65.5 µM (inactive) | > 100 µM (inactive)
7 | Cn1c2c(c3ccccc31)CC(=S)N1CCCC(CC2O)C1 (stereo unspecified) | > 100 µM (inactive) | > 100 µM (inactive) | – | > 100 µM (inactive) | > 100 µM (inactive) | – | > 100 µM (inactive) | > 100 µM (inactive) | > 100 µM (inactive) | > 100 µM (inactive) | > 100 µM (inactive) | – | > 100 µM (inactive) | > 100 µM (inactive) | > 100 µM (inactive) | > 100 µM (inactive) | > 100 µM (inactive) | > 100 µM (inactive) | > 100 µM (inactive) | 45.8 µM (inactive)
